The values that follow come from patent publication US6936585B2, “Corticotropin releasing factor 2 receptor agonists” (priority 2002, dated 2005).

Structures are written as SMILES. Peptide text beside a SMILES is read from it.

Test [1] addresses T1, CRF2R (Homo sapiens, UniProt Q13324).
T1 sequence (Q13324 1-411): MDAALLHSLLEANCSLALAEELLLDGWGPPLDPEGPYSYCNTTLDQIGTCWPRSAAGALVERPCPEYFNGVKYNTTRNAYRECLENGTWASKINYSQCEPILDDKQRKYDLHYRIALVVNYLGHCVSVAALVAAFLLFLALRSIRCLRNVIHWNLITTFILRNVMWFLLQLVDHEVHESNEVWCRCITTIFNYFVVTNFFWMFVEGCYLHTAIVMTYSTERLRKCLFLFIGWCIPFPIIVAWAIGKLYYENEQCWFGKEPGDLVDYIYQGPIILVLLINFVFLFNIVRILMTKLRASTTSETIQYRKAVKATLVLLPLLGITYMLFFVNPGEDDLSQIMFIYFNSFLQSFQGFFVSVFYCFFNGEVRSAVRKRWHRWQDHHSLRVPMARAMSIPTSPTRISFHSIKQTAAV
Briefly: CRF2R agonist activation (EC50 / Emax), called comparative CRF binding. The class given is cell-based. The conditions noted are these: for EC50: read-out: CRF2R EC50; for Emax: read-out: CRF2R Emax. The text has this: (§1) The pharmacological activity and selectivity of the peptides of present invention can be determined using published test procedures. See, e.g, U.S. patent application Ser. No. 09/799,978 (now issued U.S. Pat. No. 6,670,140). Because CRF2R and CRF1R are homologous proteins, it is expected that a certain proportion of agonists for CRF2R will also function as agonists of CRF1R. As discussed above, activation of CRF1R induces activation of the HPA axis since increased corticosteroid production leads to skeletal muscle atrophy. In most cases in which an increase in muscle mass or function is desired, it is not desirable to activate the HPA axis.
(§2) Cell-based assays include the steps of contacting cells which express CRF1R or CRF2R with a peptide of the present invention or control and measuring activation of the CRFR by measuring the expression or activity of components of the CRFR signal transduction pathways.
(§3) For example, after contact with a peptide of the present invention, lysates of the cells can be prepared and assayed for induction of cAMP. cAMP is induced in response to Gαs activation. Because Gαs is activated by receptors other than CRFR and because a test peptide may be exerting its effect through CRFRs or by another mechanism, two control comparisons are relevant for determining whether the peptide increases levels of cAMP via activation of a CRFR. One control compares the cAMP level of cells contacted with the peptide and the cAMP level of cells contacted with a control compound (i.e., the vehicle in which the peptide is dissolved).
(§4) In one example, cAMP induction is measured with the use of DNA constructs containing the cAMP responsive element linked to any of a variety of reporter genes can be introduced into cells expressing CRFRs. Such reporter genes include, but are not limited to, chloramphenicol acetyltransferase (CAT), luciferase, glucuronide synthetase, growth hormone, fluorescent proteins (e.g., Green Fluorescent Protein), or alkaline phosphatase. Following exposure of the cells to the peptide, the level of reporter gene expression can be quantitated to determine the peptide's ability to increase cAMP levels and thus determine the peptide's ability to activate the CRFR.
(§5) In addition to using cells expressing full length CRFRs, cells can be engineered which express CRFRs containing the ligand binding domain of the receptor coupled to, or physically modified to contain, reporter elements or to interact with signaling proteins. For example, a wild type CRFR or CRFR fragment can be fused to a G-protein resulting in activation of the fused G-protein upon agonist binding to the CRFR portion of the fusion protein. […] In addition, alternative pathways for induction of the CRE reporter could be eliminated to reduce basal levels.

The target in test [2] is T2, CRF1R (Homo sapiens, UniProt P34998).
T2 sequence (P34998 24-415): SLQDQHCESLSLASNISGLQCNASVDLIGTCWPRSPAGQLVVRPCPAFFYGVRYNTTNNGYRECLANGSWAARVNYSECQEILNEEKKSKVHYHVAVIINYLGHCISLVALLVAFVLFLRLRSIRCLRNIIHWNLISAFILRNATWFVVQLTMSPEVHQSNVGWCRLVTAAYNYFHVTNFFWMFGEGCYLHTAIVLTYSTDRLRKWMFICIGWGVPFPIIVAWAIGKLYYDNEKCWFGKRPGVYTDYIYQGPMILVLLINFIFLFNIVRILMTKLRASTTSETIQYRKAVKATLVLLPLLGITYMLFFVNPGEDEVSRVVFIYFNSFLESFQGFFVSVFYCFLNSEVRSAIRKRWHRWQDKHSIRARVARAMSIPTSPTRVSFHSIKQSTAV
The experiment in a line: CRF1R agonist activation (EC50 / Emax), called comparative CRF binding. The class given is cell-based. The conditions noted are these: for EC50: read-out: CRF1R EC50; for Emax: read-out: CRF1R Emax.
Text: as §1, §2, §3, §4, §5

What is called EC50 is the concentration that produces a half-maximal response. In general, Emax refers to the size of the effect at its maximum, as opposed to the concentration needed. Take `CC[C@H](C)[C@H](N)C(=O)N[C@H](C(=O)N[C@@H](CC(C)C)C(=O)N[C@@H](CO)C(=O)N[C@@H](CC(C)C)C(=O)N[C@@H](CC(=O)O)C(=O)N[C@H](C(=O)N1CCC[C@H]1C(=O)N[C@H](C(=O)NCC(=O)N[C@@H](CC(C)C)C(=O)N[C@@H](CC(C)C)C(=O)N[C@@H](CCC(N)=O)C(=O)N[C@H](C(=O)N[C@@H](CC(C)C)C(=O)N[C@@H](CC(C)C)C(=O)N[C@@H](CCC(=O)O)C(=O)N[C@@H](CCC(N)=O)C(=O)N[C@@H](C)C(=O)N[C@@H](CCCCN)C(=O)N[C@@H](CCC(N)=O)C(=O)N[C@@H](CCCNC(=N)N)C(=O)N[C@@H](C)C(=O)N[C@@H](C)C(=O)N[C@@H](CCCNC(=N)N)C(=O)N[C@@H](CCC(=O)O)C(=O)N[C@@H](CCC(N)=O)C(=O)N[C@@H](C)C(=O)N[C@H](C(=O)N[C@H](C(=O)N[C@@H](CC(N)=O)C(=O)N[C@@H](C)C(=O)N[C@@H](CCCNC(=N)N)C(=O)N[C@H](C(=O)N[C@@H](CC(C)C)C(=O)N[C@@H](C)C(=O)N[C@@H](CCCNC(=N)N)C(=O)N[C@H](C(N)=O)C(C)C)[C@@H](C)CC)[C@@H](C)O)[C@@H](C)O)[C@@H](C)CC)[C@@H](C)CC)C(C)C)C(C)C` [compound 110] (H-IVLSLDVPIGLLQILLEQAKQRAAREQATTNARILARV-NH2; N-terminus assumed): in test [1], the EC50 was 0.011 µM and the Emax is 100%. Besides, in test [2], the EC50 is above 0.1 µM and the Emax is 9%.

Take `CC[C@H](C)[C@H](N)C(=O)N[C@H](C(=O)N[C@@H](CC(C)C)C(=O)N[C@@H](CO)C(=O)N[C@@H](CC(C)C)C(=O)N[C@@H](CC(=O)O)C(=O)N[C@H](C(=O)N1CCC[C@H]1C(=O)N[C@H](C(=O)NCC(=O)N[C@@H](CC(C)C)C(=O)N[C@@H](CC(C)C)C(=O)N[C@@H](CCC(N)=O)C(=O)N[C@H](C(=O)N[C@@H](CC(C)C)C(=O)N[C@@H](CC(C)C)C(=O)N[C@@H](CCC(=O)O)C(=O)N[C@@H](CCC(N)=O)C(=O)N[C@@H](CCC(=O)O)C(=O)N[C@@H](CCCNC(=N)N)C(=O)N[C@@H](CCC(N)=O)C(=O)N[C@@H](CCCNC(=N)N)C(=O)N[C@@H](C)C(=O)N[C@@H](C)C(=O)N[C@@H](CCCNC(=N)N)C(=O)N[C@@H](CCC(=O)O)C(=O)N[C@@H](CCC(N)=O)C(=O)N[C@@H](C)C(=O)N[C@H](C(=O)N[C@H](C(=O)N[C@@H](CC(N)=O)C(=O)N[C@@H](C)C(=O)N[C@@H](CCCNC(=N)N)C(=O)N[C@H](C(=O)N[C@@H](CC(C)C)C(=O)N[C@@H](C)C(=O)N[C@@H](CCCNC(=N)N)C(=O)N[C@H](C(N)=O)C(C)C)[C@@H](C)CC)[C@@H](C)O)[C@@H](C)O)[C@@H](C)CC)[C@@H](C)CC)C(C)C)C(C)C` [compound 111] (H-IVLSLDVPIGLLQILLEQERQRAAREQATTNARILARV-NH2; N-terminus assumed): the figures for the Emax in test [1] and in test [2] were 99% and 9%, respectively.

In the case of `CC[C@H](C)[C@H](N)C(=O)N[C@H](C(=O)N[C@@H](CC(C)C)C(=O)N[C@@H](CO)C(=O)N[C@@H](CC(C)C)C(=O)N[C@@H](CC(=O)O)C(=O)N[C@H](C(=O)N1CCC[C@H]1C(=O)N[C@H](C(=O)NCC(=O)N[C@@H](CC(C)C)C(=O)N[C@@H](CC(C)C)C(=O)N[C@@H](CCC(N)=O)C(=O)N[C@H](C(=O)N[C@@H](CC(C)C)C(=O)N[C@@H](CC(C)C)C(=O)N[C@@H](CCC(=O)O)C(=O)N[C@@H](CCC(N)=O)C(=O)N[C@@H](C)C(=O)N[C@@H](CCCCN)C(=O)N[C@@H](C)C(=O)N[C@@H](CCC(=O)O)C(=O)N[C@@H](C)C(=O)N[C@@H](C)C(=O)N[C@@H](CCCNC(=N)N)C(=O)N[C@@H](CCC(=O)O)C(=O)N[C@@H](CCC(N)=O)C(=O)N[C@@H](C)C(=O)N[C@H](C(=O)N[C@H](C(=O)N[C@@H](CC(N)=O)C(=O)N[C@@H](C)C(=O)N[C@@H](CCCNC(=N)N)C(=O)N[C@H](C(=O)N[C@@H](CC(C)C)C(=O)N[C@@H](C)C(=O)N[C@@H](CCCNC(=N)N)C(=O)N[C@H](C(N)=O)C(C)C)[C@@H](C)CC)[C@@H](C)O)[C@@H](C)O)[C@@H](C)CC)[C@@H](C)CC)C(C)C)C(C)C` [compound 112] (H-IVLSLDVPIGLLQILLEQAKAEAAREQATTNARILARV-NH2; N-terminus assumed), the EC50 in test [1] was 0.0123 µM; in test [2] it was above 0.1 µM. In addition, the Emax in test [1] came to 100%; in test [2], 10%.

As to `CC[C@H](C)[C@H](N)C(=O)N[C@H](C(=O)N[C@@H](CC(C)C)C(=O)N[C@@H](CO)C(=O)N[C@@H](CC(C)C)C(=O)N[C@@H](CC(=O)O)C(=O)N[C@H](C(=O)N1CCC[C@H]1C(=O)N[C@H](C(=O)NCC(=O)N[C@@H](CC(C)C)C(=O)N[C@@H](CC(C)C)C(=O)N[C@@H](CCC(N)=O)C(=O)N[C@H](C(=O)N[C@@H](CC(C)C)C(=O)N[C@@H](CC(C)C)C(=O)N[C@@H](CCC(=O)O)C(=O)N[C@@H](CCC(N)=O)C(=O)N[C@@H](CCC(=O)O)C(=O)N[C@@H](CCCNC(=N)N)C(=O)N[C@@H](C)C(=O)N[C@@H](CCC(=O)O)C(=O)N[C@@H](C)C(=O)N[C@@H](C)C(=O)N[C@@H](CCCNC(=N)N)C(=O)N[C@@H](CCC(=O)O)C(=O)N[C@@H](CCC(N)=O)C(=O)N[C@@H](C)C(=O)N[C@H](C(=O)N[C@H](C(=O)N[C@@H](CC(N)=O)C(=O)N[C@@H](C)C(=O)N[C@@H](CCCNC(=N)N)C(=O)N[C@H](C(=O)N[C@@H](CC(C)C)C(=O)N[C@@H](C)C(=O)N[C@@H](CCCNC(=N)N)C(=O)N[C@H](C(N)=O)C(C)C)[C@@H](C)CC)[C@@H](C)O)[C@@H](C)O)[C@@H](C)CC)[C@@H](C)CC)C(C)C)C(C)C` [compound 113] (H-IVLSLDVPIGLLQILLEQERAEAAREQATTNARILARV-NH2; N-terminus assumed), in test [1], the EC50 was 0.0113 µM and the Emax is 98%. For the same molecule, in test [2], the EC50 was above 0.1 µM and the Emax is 4%.

Take `CC[C@H](C)[C@H](N)C(=O)N[C@H](C(=O)N[C@@H](CC(C)C)C(=O)N[C@@H](CO)C(=O)N[C@@H](CC(C)C)C(=O)N[C@@H](CC(=O)O)C(=O)N[C@H](C(=O)N1CCC[C@H]1C(=O)N[C@H](C(=O)NCC(=O)N[C@@H](CC(C)C)C(=O)N[C@@H](CC(C)C)C(=O)N[C@@H](CCC(N)=O)C(=O)N[C@H](C(=O)N[C@@H](CC(C)C)C(=O)N[C@@H](CC(C)C)C(=O)N[C@@H](CCC(=O)O)C(=O)N[C@@H](CCC(N)=O)C(=O)N[C@@H](C)C(=O)N[C@@H](CCCNC(=N)N)C(=O)N[C@@H](CCC(N)=O)C(=O)N[C@@H](CCCNC(=N)N)C(=O)N[C@@H](C)C(=O)N[C@@H](C)C(=O)N[C@@H](CCCNC(=N)N)C(=O)N[C@@H](CCC(=O)O)C(=O)N[C@@H](CCC(N)=O)C(=O)N[C@@H](C)C(=O)N[C@H](C(=O)N[C@H](C(=O)N[C@@H](CC(N)=O)C(=O)N[C@@H](C)C(=O)N[C@@H](CCCNC(=N)N)C(=O)N[C@H](C(=O)N[C@@H](CC(C)C)C(=O)N[C@@H](C)C(=O)N[C@@H](CCCNC(=N)N)C(=O)N[C@H](C(N)=O)C(C)C)[C@@H](C)CC)[C@@H](C)O)[C@@H](C)O)[C@@H](C)CC)[C@@H](C)CC)C(C)C)C(C)C` [compound 114] (H-IVLSLDVPIGLLQILLEQARQRAAREQATTNARILARV-NH2; N-terminus assumed): the values for the Emax in test [1] and in test [2] were 100% and 6%, respectively.
